Test results as given in patent US20150038541A1, “COMPOSITION AND METHODS FOR CELL MODULATION” (APOSIGNAL BIOSCIENCE LLC, priority 2012, published 2015).
Read-outs that look alike come from different tables or passages of the source.

How the values were obtained:
HeLa cells [1] = experiment: MTS cell viability of HeLa cells treated with anticancer drug with or without AS-7 (48 hours); assay type: cell-based, human; conditions: for IC50: Homo sapiens, HeLa, 48 h, 48 hours, MTS, read-out: IC50 of bortezomib (loss of HeLa cell viability)
Procedure: HeLa cells were seeded in a 96 well tissue culture plate (2000 cells per well). The compounds, 10 μM AS-7 and bortezomib (BioVision, Inc., Milpitas, Calif.) at the concentrations indicated in FIG. 1, were added the following day. AS-7 was prepared according to the Ugi reaction by combination of the four components: isocyanide (III), m-cyanobenzaldehyde (IV), 2-benzoylbenzoic acid (V), and histamine (VI) in refluxing methanol (Ref. http://www.occhem.com/synthesis/2561 2.html). The Medicinal Chemistry unit of Southern Research Institute (2000 Ninth Avenue South Birmingham, Ala. 35205) was contracted by a fee for service agreement to synthesize AS-7.
After 48 hours, MTS (3-(4,5-dimethylthiazol-2-yl)-5-(3-carboxymethoxyphenyl)-2-(4-sulfophenyl)-2H-tetrazolium) was added and absorbance was measured at 490 nm. […] Values in FIG. 1 are relative to controls that contained only the vehicle in which the drugs were dissolved. Vehicle had no effect on cell viability. Error bars in FIG. 1 are not visible if they are smaller than the symbols. […]
(§1) HeLa cells were seeded in a 96 well tissue culture plate (2000 cells per well). The compounds, 10 μM AS-7 and bortezomib at the concentrations indicated in FIG. 9 were added the following day. After 48 hours, MTS was added and absorbance was measured at 490 nm. […] Values are relative to controls that contained only the vehicle in which the drugs were dissolved. Vehicle had no effect on cell viability.

ovarian A2780 cells = experiment: Crystal violet cell viability of ovarian A2780 cells, bortezomib with or without AS-7 (72 hours); assay type: cell-based, human; conditions: Homo sapiens, A2780, 72 h, 72 hours, crystal violet, read-out: IC50 of the cytotoxic effect of bortezomib towards ovarian A2780 cells
Procedure: Ovarian tumor-derived cell lines, IGROV and A2780, were seeded in a 96 well tissue culture plate (2000 cells per well). The compounds, 10 μM AS-7 and bortezomib (BioVision, Inc., Milpitas, Calif.) at the concentrations indicated in the figures, were added the following day. AS-7 was prepared as described in Example I above. […] Values are relative to cells that with the vehicle in which the drugs were dissolved. Vehicle had no effect on cell viability. Error bars in FIG. 6 and FIG. 7 are not shown if they are smaller than the symbols.

Melanoma A2620 cells = experiment: Crystal violet cell viability of melanoma A2620 cells, bortezomib with or without AS-7 (72 hours); assay type: cell-based, human; conditions: Homo sapiens, 72 h, read-out: IC50 of bortezomib (loss of cell viability)
Procedure: as §1, with “Melanoma A2620 cells” for “HeLa cells”, “FIG. 8” for “FIG. 9”, “day.” for “day. After 48 hours, MTS was added and absorbance was measured at 490 nm.”

T47D cells = experiment: MTS cell viability of breast cancer T47D cells, bortezomib with or without AS-7; assay type: cell-based, human; conditions: 48 hours, MTS
Procedure: (§2) Breast cancer derived cell lines, T47D and 159C, were seeded in a 96 well tissue culture plate (2000 cells per well). The significance of these two lines of breast cancer derived cell lines is that the T47D cells positive for three markers used to optimize the chemotherapeutic treatment, namely HER2 receptor, estrogen receptor, and progesterone receptor. By contrast to the T47D cells, the 159C cells are negative for the three markers. The compounds, 10 μM AS-7 and a range of bortezomib (BioVision, Inc., Milpitas, Calif.) concentrations were added the following day. After 48 hours, MTS was added and absorbance was measured at 490 nm.

159C cells = experiment: MTS cell viability of breast cancer 159C cells, bortezomib with or without AS-7; assay type: cell-based; conditions: 48 hours, MTS
Procedure: as §2

proteasome = experiment: Proteasome activity measured in lysates of treated cells; assay type: cell-based; conditions: bortezomib treated HeLa cells; data not shown
Description: (§3) The cytotoxic action of bortezomib is known to be mediated by proteasome inhibition and the induction of apoptosis.

caspase-3 = experiment: Caspase-3 activity measured in lysates of treated HeLa cells; assay type: cell-based; conditions: bortezomib treated HeLa cells; data not shown
Description: as §3

[2] = cited from earlier work
solid tumors = conditions: phase I and II clinical trials; single agent or in combination with several anticancer drugs; cited from earlier work
HeLa cells [3] = experiment: MTS cell viability of HeLa cells treated with anticancer drug with or without AS-7 (48 hours); assay type: cell-based, human; conditions: Homo sapiens, HeLa, 48 h, 48 hours, MTS, read-out: IC50 of carfilzomib (loss of HeLa cell viability)
HeLa cells [4] = system: HeLa cells
Procedure: HeLa cells were treated with 10 micrograms/ml cycloheximide alone or together with a range of TNF-alpha concentrations from 2.5 to 20 nanograms per ml. Following treatment, the cells were fixed with 4% paraformaldehyde (4° C. for 30 minutes), stained for 30 minutes with 0.5% crystal violet in 10% ethanol, and washed extensively with water to remove dye that was not bound to the cells. Cell bound crystal violet was solubilized with 10% acetic acid and absorbance was measured at 590 nm to quantitate cell growth. The time course data for each cell line were fit by nonlinear regression analysis to the equation for exponential growth using GraphPad Prism software.

CC(C)CC(C=CS(C)(=O)=O)NC(=O)C(CC(C)C)NC(=O)C(CC(C)C)NC(=O)Cc1cc(I)c(O)c([N+](=O)[O-])c1 (stereo not drawn) [NLVS, 4-hydroxy-5-iodo-3-nitrophenylacetyl-Leu-Leu-leucinal-vinyl sulfone, reference compound]
HeLa cell viability at NLVS concentrations that by themselves had little effect (HeLa cells [1]; in the presence of 10 μM AS-7): complete loss of viability

CC(C)C[C@H](NC(=O)[C@H](Cc1ccccc1)NC(=O)c1cnccn1)B(O)O [bortezomib]
IC50 (HeLa cells [1]; in the absence of AS-7): ~8.8 nM
IC50 (HeLa cells [1]; in the presence of 10 μM AS-7): ~2.5 nM
IC50 (ovarian A2780 cells; in the absence of AS-7): ~12.9 nM
IC50 (ovarian A2780 cells; in the presence of 10 μM AS-7): ~4.2 nM
IC50 (Melanoma A2620 cells; in the absence of AS-7, 72 hours): ~7.3 nM
IC50 (Melanoma A2620 cells; in the presence of 10 μM AS-7, 72 hours): ~2.4 nM
sensitivity to the cytotoxic action of bortezomib by itself (T47D cells): highly sensitive
sensitivity to the cytotoxic action of bortezomib by itself (159C cells): highly sensitive
proteasome activity in cell lysates (proteasome): markedly inhibited
caspase-3 activity in cell lysates (caspase-3): increased
median time to improvement from the neurotoxicity ([2]; after discontinuation of bortezomib treatment): three
patients with Grades 1 and 2 peripheral neuropathy ([2]; patients with newly diagnosed disease under bortezomib therapy): ≤ 33%
patients with grades 3 and 4 neurotoxicity ([2]; patients with newly diagnosed disease): up to 18%
patients with Grades 1 and 2 peripheral neuropathy ([2]; patients with recurrent disease under bortezomib therapy): up to 75%
patients with grades 3 and 4 neurotoxicity ([2]; patients with recurrent disease): up to 30%
activity against solid tumors (solid tumors): quite limited activity

CC(C)C[C@H](NC(=O)[C@H](CCc1ccccc1)NC(=O)CN1CCOCC1)C(=O)N[C@@H](Cc1ccccc1)C(=O)N[C@@H](CC(C)C)C(=O)[C@@]1(C)CO1 [carfilzomib]
IC50 (HeLa cells [3]; in the absence of AS-7): ~8.5 nM
IC50 (HeLa cells [3]; in the presence of 10 μM AS-7): ~2.5 nM

C[C@@H]1C[C@@H]([C@H](O)CC2CC(=O)NC(=O)C2)C(=O)[C@@H](C)C1 [cycloheximide, reference compound]
effect on HeLa cell proliferation and cell death (HeLa cells [4]; 10 micrograms/ml cycloheximide alone, 24 hour interval, absence or presence of AS-7): cytostatic, but not cytotoxic

TNF-alpha
cytotoxicity to HeLa cells (HeLa cells [4]; TNF-alpha in combination with cycloheximide, apparent within six hours): rapidly cytotoxic
